Like-named read-outs stand apart in the source and are kept apart here.
Tests used:
[1] = Single dose pharmacokinetics of VRx-3996 in patients, serum, cycle 1 day 1; type: in vivo, humans; conditions: human, po
Method: Patients enrolled in study were administered oral nanatinostat and valganciclovir at predefined doses. […] 8.1 software.

HDAC8 = molecular target: T1, HDAC8 (Homo sapiens, UniProt Q9BY41); experiment: biochemical
T1 sequence (Q9BY41 1-377): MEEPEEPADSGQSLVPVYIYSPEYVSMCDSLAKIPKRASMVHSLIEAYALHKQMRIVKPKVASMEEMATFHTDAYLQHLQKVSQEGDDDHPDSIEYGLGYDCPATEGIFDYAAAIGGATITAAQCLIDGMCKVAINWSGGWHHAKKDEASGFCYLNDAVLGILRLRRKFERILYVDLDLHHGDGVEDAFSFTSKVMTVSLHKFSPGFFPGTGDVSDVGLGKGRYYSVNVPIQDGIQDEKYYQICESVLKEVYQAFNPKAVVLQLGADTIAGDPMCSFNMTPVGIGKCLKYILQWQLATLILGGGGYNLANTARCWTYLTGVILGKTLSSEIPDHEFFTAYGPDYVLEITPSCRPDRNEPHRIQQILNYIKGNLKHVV
Method: (§1) Briefly, all of the compounds are dissolved in DMSO. A series of dilutions of the compounds were prepared with 10% DMSO in HDAC assay buffer and 5 μl of the dilution was added to a 50 μl reaction so that the final concentration of DMSO is 1% in all of reactions. The compounds were pre-incubated in duplicate at RT for 1 hour in a mixture containing HDAC assay buffer, 5 μg BSA, HDAC enzyme (see Table 7) and a the particular HDACi. After 1 hour, the enzymatic reactions were initiated by the addition of HDAC substrate (BPS Bioscience) to a final concentration of 10 μM or 2 μM. The enzymatic reaction proceeded for 30 minutes at 37° C.
(§2) HDAC activity assays were performed in duplicates at each concentration. The fluorescent intensity data were analyzed using the computer software, Graphpad Prism. In the absence of the compound, the fluorescent intensity (Ft) in each data set was defined as 100% activity. In the absence of HDAC, the fluorescent intensity (Fb) in each data set was defined as 0% activity. The percent activity in the presence of each compound was calculated according to the following equation: % activity=(F−Fb)/(Ft−Fb), where F=the fluorescent intensity in the presence of the compound.
(§3) The values of % activity versus a series of compound concentrations were then plotted using non-linear regression analysis of Sigmoidal dose-response curve generated with the equation Y=B+(T−B)/1+10^((Log C50−X)×Hill Slope), where Y=percent activity, B=minimum percent activity, T=maximum percent activity, X=logarithm of compound and Hill Slope=slope factor or Hill coefficient. The IC50 value was determined by the concentration causing a half-maximal percent activity.

HDAC2 = HDAC2 (Homo sapiens, UniProt Q92769); experiment: biochemical
Method: as §1, §2, §3

HDAC3/NCOR2 = HDAC3/NCOR2 (Homo sapiens, UniProt O15379); experiment: biochemical
Method: as §1, §2, §3

HDAC11 = molecular target: T2, HDAC11 (Homo sapiens, UniProt Q96DB2); experiment: in vitro HDAC inhibition assay (fluorescence), HDAC11; type: biochemical; conditions: HDAC11
T2 sequence (Q96DB2 1-347): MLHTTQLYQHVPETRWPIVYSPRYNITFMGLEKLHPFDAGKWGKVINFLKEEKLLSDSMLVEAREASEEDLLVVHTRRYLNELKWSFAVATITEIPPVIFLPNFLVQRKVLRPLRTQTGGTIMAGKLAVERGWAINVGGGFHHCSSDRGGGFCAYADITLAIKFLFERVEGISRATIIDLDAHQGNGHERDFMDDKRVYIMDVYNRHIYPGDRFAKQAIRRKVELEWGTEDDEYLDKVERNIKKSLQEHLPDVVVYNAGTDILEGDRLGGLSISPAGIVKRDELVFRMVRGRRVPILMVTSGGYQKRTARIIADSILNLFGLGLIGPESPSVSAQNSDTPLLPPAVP
Method: as §1
as §2, with “compound. […]” for “compound.”

Chain of HDAC2 (Q92769 whole entry): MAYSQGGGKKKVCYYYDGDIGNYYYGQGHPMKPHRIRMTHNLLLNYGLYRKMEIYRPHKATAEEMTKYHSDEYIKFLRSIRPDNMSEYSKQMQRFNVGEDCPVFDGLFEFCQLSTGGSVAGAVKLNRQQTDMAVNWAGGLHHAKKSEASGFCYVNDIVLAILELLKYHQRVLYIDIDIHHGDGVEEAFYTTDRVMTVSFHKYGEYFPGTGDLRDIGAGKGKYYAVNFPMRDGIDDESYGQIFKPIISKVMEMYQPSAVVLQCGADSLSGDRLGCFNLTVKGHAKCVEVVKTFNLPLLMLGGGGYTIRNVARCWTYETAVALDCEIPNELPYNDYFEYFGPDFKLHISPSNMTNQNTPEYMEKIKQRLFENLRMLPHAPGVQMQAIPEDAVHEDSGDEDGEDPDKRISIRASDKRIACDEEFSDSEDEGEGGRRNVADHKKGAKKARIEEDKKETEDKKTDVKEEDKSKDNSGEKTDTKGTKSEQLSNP
Chain of HDAC3/NCOR2 (O15379 whole entry): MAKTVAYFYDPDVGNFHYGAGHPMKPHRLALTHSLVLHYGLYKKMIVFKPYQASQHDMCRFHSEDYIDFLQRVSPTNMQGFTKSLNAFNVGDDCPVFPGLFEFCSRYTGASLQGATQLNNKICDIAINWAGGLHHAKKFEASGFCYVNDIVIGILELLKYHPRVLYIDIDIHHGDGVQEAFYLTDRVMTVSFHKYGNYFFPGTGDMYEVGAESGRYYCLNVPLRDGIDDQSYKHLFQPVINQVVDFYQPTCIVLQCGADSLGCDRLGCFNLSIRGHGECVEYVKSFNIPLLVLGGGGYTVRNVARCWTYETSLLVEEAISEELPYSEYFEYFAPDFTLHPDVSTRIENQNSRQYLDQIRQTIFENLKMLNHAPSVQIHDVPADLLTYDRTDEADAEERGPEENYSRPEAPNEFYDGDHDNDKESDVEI
Chain of HDAC3/NCOR2 (Q9Y618 395-489 partner limits assumed): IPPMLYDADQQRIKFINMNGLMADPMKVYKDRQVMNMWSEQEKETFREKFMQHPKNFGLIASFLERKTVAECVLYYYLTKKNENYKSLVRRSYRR

O=C(NO)c1cnc(N2CC3C(C2)C3NCc2ccc3cc(F)ccc3n2)nc1 (centres unmarked) [Nstat, 2-(6-{[(6-Fluoroquinolin-2-yl)methyl]amino}-3-azabicyclo[3.1.0]hex-3-yl)-N-hydroxypyrimidine-5-carboxamide]
AUC ([1]; Treatment A = 5 mg VRx-3996 p.o. and 450 mg Valganciclovir p.o., single dose, N=1, read-out: AUC, geometric mean): 117 ng·h/mL
half-life ([1]; Treatment A = 5 mg VRx-3996 p.o. and 450 mg Valganciclovir p.o., single dose, N=1, read-out: Half-Life, geometric mean (converted)): 2.18 h
AUC(0-t) ([1]; Treatment A = 5 mg VRx-3996 p.o. and 450 mg Valganciclovir p.o., single dose, N=4, read-out: AUClast, geometric mean): 40.5 ng·h/mL
Cmax ([1]; Treatment A = 5 mg VRx-3996 p.o. and 450 mg Valganciclovir p.o., single dose, N=4, read-out: Cmax, geometric mean): 18.5 ng/mL
Tmax ([1]; Treatment A = 5 mg VRx-3996 p.o. and 450 mg Valganciclovir p.o., single dose, N=4, read-out: Tmax, median (range)): 3 h
AUC ([1]; Treatment B = 10 mg VRx-3996 p.o. and 450 mg Valganciclovir p.o., single dose, N=1, read-out: AUC, geometric mean): 317 ng·h/mL
half-life ([1]; Treatment B = 10 mg VRx-3996 p.o. and 450 mg Valganciclovir p.o., single dose, N=1, read-out: Half-Life, geometric mean (converted)): 1.17 h
AUC(0-t) ([1]; Treatment B = 10 mg VRx-3996 p.o. and 450 mg Valganciclovir p.o., single dose, N=9, read-out: AUClast, geometric mean): 165 ng·h/mL
Cmax ([1]; Treatment B = 10 mg VRx-3996 p.o. and 450 mg Valganciclovir p.o., single dose, N=9, read-out: Cmax, geometric mean): 62.6 ng/mL
Tmax ([1]; Treatment B = 10 mg VRx-3996 p.o. and 450 mg Valganciclovir p.o., single dose, N=9, read-out: Tmax, median (range)): 2 h
AUC ([1]; Treatment C = 10 mg VRx-3996 p.o. and 900 mg Valganciclovir p.o., single dose, N=4, read-out: AUC, geometric mean): 322 ng·h/mL
half-life ([1]; Treatment C = 10 mg VRx-3996 p.o. and 900 mg Valganciclovir p.o., single dose, N=4, read-out: Half-Life, geometric mean (converted)): 1.67 h
AUC(0-t) ([1]; Treatment C = 10 mg VRx-3996 p.o. and 900 mg Valganciclovir p.o., single dose, N=6, read-out: AUClast, geometric mean): 227 ng·h/mL
Cmax ([1]; Treatment C = 10 mg VRx-3996 p.o. and 900 mg Valganciclovir p.o., single dose, N=6, read-out: Cmax, geometric mean): 78.9 ng/mL
Tmax ([1]; Treatment C = 10 mg VRx-3996 p.o. and 900 mg Valganciclovir p.o., single dose, N=6, read-out: Tmax, median (range)): 1 h
half-life ([1]; humans, oral nanatinostat with valganciclovir, read-out: T1/2 (converted)): ~2 h
IC50 (HDAC8): 860 nM
IC50 (HDAC2): 12 nM
IC50 (HDAC3/NCOR2): 12 nM
IC50 (HDAC11): 2800 nM

— patent US20240058347A1, “DOSAGES FOR HDAC TREATMENT WITH REDUCED SIDE EFFECTS” (VIRACTA THERAPEUTICS, INC., priority 2019, published 2024)
